# Patent publication US10888089B2, “Methods and compositions for controlling fungus-growing ants” (UNIVERSITE PARIS EST CRETEIL VAL DE MARNE, priority 2016, dated 2021)
# pIC50: −log10 of the molar value.
# Tests used:
# laccase [1] = assay: Laccase inhibition (ABTS colorimetric method), ant sample; type: biochemical; settings: anti-laccase activity, ABTS substrate, read-out: IC50 Acromyrmex octospinosus
# Method: (§1) Crushing was performed in mortars placed on ice, using pestles. […] After obtaining crushed matter of homogeneous texture, the whole was centrifuged. Centrifugation was performed at 4° C., 15,000 rpm for 20 min. For protein precipitation, the supernatant was 80% saturated with ammonium sulphate ((NH4)2SO4). After total dissolution of the ammonium sulphate, the solution obtained is placed at 4° C. for 12 hours. The solution was then centrifuged at a temperature of 4° C., at 15,000 rpm, for 20 min. The pellet obtained is redissolved in a minimum of cold distilled water and then dialysed against 5 litres of distilled water at 4° C. for 12 hours. The extract thus obtained constitutes the crude enzyme extract. These extracts were aliquoted and then stored at -20° C. […] Briefly, ABTS is diluted to 27.4 mg/L in […] buffer solution (pH 5.2). 150 μL of ABTS solution is incubated with 100 μL of test solution and then incubated for 30 min at 37° C. The measurement of OD at 405 nm is used to determine the amount of oxidised ABTS using Beer-Lambert's law (epsilon=36,000 mM). […] The method was published by Bourbonnais et al. in 1990 (Oxidation of non-phenolic substrates. An expanded role for laccase in lignin biodegradation. FEBS, 1990, 267, 99-102). […] The inhibitors selected for analysis are compounds having antioxidant capacity.
# laccase [2] = assay: Laccase inhibition (ABTS colorimetric method), fungus garden sample; type: biochemical; settings: anti-laccase activity, ABTS substrate, read-out: IC50 Leucophorus gongylophorus
# Method: as §1
# [3] = tested on: 5 actinomycete strains isolated from fungus-growing ants; assay: Antibacterial activity using discs in Petri dishes, average of 5 actinomycete strains; type: cell-based, Streptomyces, Tsukumurella and Gordonia
# Method: (§2) The general principle is to test in solid medium the culture of the strain in the presence of a paper disc impregnated with the molecule to be tested. For each molecule tested at least three dilutions were prepared. In the presence of a molecule, a halo, the diameter of which is related to the intensity of the inhibitory effect, appears around the paper disc. This approach provides a simple way to select antibacterial molecules and to determine the minimum inhibitory concentration (MIC) of bacterial growth.
# (§3) Antibacterial activity can be measured in liquid medium (in a liquid bacterial culture) or in solid medium (on an agar Petri dish) by adding a known concentration of antibiotic. In liquid medium, inhibition is measured by an optical density (OD); in solid medium, growth inhibition is estimated by the diameter of the halo corresponding to the zone where no growth is observed.
# (§4) From the isolates, a sample is taken. This is suspended in 1 mL of physiological saline solution without measuring OD.
# (§5) Inoculation is performed with 100 μL of suspension using a spreader. For undiluted essential oil tests, a disc soaked in essential oil is placed in the centre of the dish. For dilutions (½; ⅕), both discs are placed in the same dish. Dilutions were prepared by diluting the essential oils in sunflower oil. A control dish was prepared and consists of an inoculate in the absence of essential oil. A second control, this time with a disc impregnated with sunflower oil, was also prepared to confirm the absence of an effect. All products were sterilised and the experiments were performed under a hood in sterile conditions.
# (§6) After 4 days of growth, the inhibition diameters were measured.
# This step made it possible to isolate, from ants belonging to the species Acromyrmex octospinosus, 15 actinomycete strains including 12 belonging to the genus Tsukumurella, two to the genus Streptomyces and one to the genus Gordonia. In total, 5 strains belonging to the genera Streptomyces, Tsukumurella and Gordonia were selected for the analysis of antibacterial substances.
# Streptomyces (NA 2B3) = assay: Antibacterial activity using discs in Petri dishes, strain Streptomyces NA2B3; type: cell-based
# Method: as §2, §3, §4, §5, §6
# [4] = tested on: laccase activity of Acromyrmex octospinosus and of Leucophorus gongylophorus; assay: Laccase inhibition (ABTS), ant and fungus garden samples together; type: biochemical; settings: for anti-laccase activity (in words): data not shown
# Method: Crushing was performed in mortars placed on ice, using pestles. Ants (2 g) and fungus garden (2 g) were crushed in 10 mL of distilled water refrigerated at 4° C. After obtaining crushed matter of homogeneous texture, the whole was centrifuged. Centrifugation was performed at 4° C., 15,000 rpm for 20 min.
# For protein precipitation, the supernatant was 80% saturated with ammonium sulphate ((NH4)2SO4). After total dissolution of the ammonium sulphate, the solution obtained is placed at 4° C. for 12 hours. The solution was then centrifuged at a temperature of 4° C., at 15,000 rpm, for 20 min. The pellet obtained is redissolved in a minimum of cold distilled water and then dialysed against 5 litres of distilled water at 4° C. for 12 hours. The extract thus obtained constitutes the crude enzyme extract. These extracts were aliquoted and then stored at −20° C.
# Laccase activity was evaluated using 2,2′-azino-bis(3-ethylbenzthiazoline-6-sulphonic acid) (ABTS) as oxidation control substrate. Briefly, ABTS is diluted to 27.4 mg/L in Mcllvain buffer solution (pH 5.2). 150 μL of ABTS solution is incubated with 100 μL of test solution and then incubated for 30 min at 37° C. The measurement of OD at 405 nm is used to determine the amount of oxidised ABTS using Beer-Lambert's law (epsilon=36,000 mM).
# The determination of laccase activity is based on a colorimetric method where the substrate ABTS (2,2′-azino-bis(3-ethylbenzthiazoline-6-sulphonic acid) in reduced form (colourless) is oxidised (green colour) in the presence of the enzyme. The method was published by Bourbonnais et al. in 1990 (Oxidation of non-phenolic substrates. An expanded role for laccase in lignin biodegradation. FEBS, 1990, 267, 99-102). To test the inhibition of laccase activity, the molecule tested is added to the reaction mixture in amounts ranging from 0.1 mM to 100 mM. The inhibitors selected for analysis are compounds having antioxidant capacity.
pIC50 (laccase [1]),pIC50 (laccase [2]),Compound,"Average inhibition diameters ([3]; Table 6, 20%)","inhibition diameter (Streptomyces (NA 2B3); Table 5, 20%)",further results
> 3.60,> 3.60,O=C1O[C@H]([C@@H](O)CO)C(O)=C1O [Ascorbic acid],,,
,,Cc1ccc(C(C)C)cc1O [Carvacrol],2.4 ± 0.3,2.2 ± 0.3 cm,
,,O=CC=Cc1ccccc1 [Cinnamaldehyde],4.5 ± 0.6,3.0 ± 1.5 cm,"Average inhibition diameters ([3]; Table 6, 10%): 2.9 ± 0.6"
,,"CC[C@H]1OC(=O)[C@H](C)[C@@H](O[C@H]2C[C@@](C)(OC)[C@@H](O)[C@H](C)O2)[C@H](C)[C@@H](O[C@@H]2O[C@H](C)C[C@H](N(C)C)[C@H]2O)[C@](C)(O)C[C@@H](C)C(=O)[C@H](C)[C@@H](O)[C@]1(C)O [Erythromycin, reference compound]",3.6 ± 0.4,4.3 ± 0.3 cm,"Average inhibition diameters ([3]; Table 4, 10%): 3.2 ± 0.4 cm; Average inhibition diameters ([3]; Table 4, 20%): 3.6 ± 0.4 cm; Average inhibition diameters ([3]; Table 6, 10%): 3.2 ± 0.4; inhibition diameter (Streptomyces (NA 2B3); Table 3, 10%): 2.2 ± 0.3 cm; inhibition diameter (Streptomyces (NA 2B3); Table 3, 20%): 3.6 ± 0.4 cm; inhibition diameter (Streptomyces (NA 2B3); Table 5, 10%): 3.5 ± 0.5 cm"
,,C=CCc1ccc(O)c(OC)c1 [Eugenol],2.9 ± 0.7,,anti-laccase activity (in words) [4]: anti-laccase activity was observed
> 4.00,> 4.30,COc1cc(/C=C/C(=O)O)ccc1O [Ferulic acid],,,
> 4.30,> 4.30,O=C(O)c1cc(O)c(O)c(O)c1 [Gallic acid],,,
> 3.60,> 3.60,N[C@@H](CS)C(=O)O [L-Cysteine],,,inhibition of laccase activity ([4]; at concentrations above 0.5 mM (FIG. 1)): more than 80%
> 3.60,> 4.00,COc1cc(C(=O)O)cc(OC)c1O [Syringic acid],,,
,,Cc1ccc(C(C)C)c(O)c1 [Thymol],2.2 ± 0.3,1.7 ± 0.8 cm,anti-laccase activity (in words) [4]: anti-laccase activity was observed

Compound,pIC50 (laccase [1]),pIC50 (laccase [2]),"Average inhibition diameters ([3]; Table 6, 20%)","inhibition diameter (Streptomyces (NA 2B3); Table 5, 20%)",further results
O=S(O)(O)=S [Sodium thiosulfate],> 3.60,> 3.60,,,
